The values that follow come from patent US8618153B2, “Hepatitis C virus inhibitors” (Bristol-Myers Squibb Company, priority 2009, dated 2013).

The EC50 is the concentration giving half of the maximal effect.

The test system of one experiment is HCV 1b genotype. Description: HCV Replicon assay (HCV-neo replicon cells), 1b genotype. It counts as cell-based. The following applies: Hepatitis C virus; HCV 1b genotype replicon; numeric value; read-out: 1b EC50 (in μM or range). The method, then:
An HCV Replicon assay was utilized in the present disclosure, and was prepared, conducted and validated as described in commonly owned PCT/US2006/022197 and in O'Boyle et al., Antimicrob. Agents Chemother., 49(4):1346-1353 (April 2005). Assay methods incorporating luciferase reporters have also been used as described (Apath.com).
HCV-neo replicon cells and replicon cells containing mutations in the NS5A region were used to test the currently described family of compounds. The compounds were determined to have more than 10-fold less inhibitory activity on cells containing mutations than wild-type cells. Thus, the compounds of the present disclosure can be effective in inhibiting the function of the HCV NS5A protein and are understood to be as effective in combinations as previously described in application PCT/US2006/022197 and commonly owned WO 04/014852. Further, the compounds of the present disclosure can be effective against the HCV 1b genotype. It should also be understood that the compounds of the present disclosure can inhibit multiple genotypes of HCV. […] In one embodiment compounds of the present disclosure are inhibitory versus 1a, 1b, 2a, 2b, 3a, 4a, and 5a genotypes. […] The compounds of the present disclosure may inhibit HCV by mechanisms in addition to or other than NS5A inhibition. In one embodiment the compounds of the present disclosure inhibit HCV replicon and in another embodiment the compounds of the present disclosure inhibit NS5A.
For the compound `COC(=O)N[C@H](C(=O)N1CCC[C@H]1c1ncc(-c2ccc(-c3ccc(-c4cnc([C@@H]5CCCN5C(=O)[C@@H](NC(=O)OC)C(C)C)[nH]4)s3)s2)[nH]1)C(C)C` [Example 6, Methyl ((1S)-1-(((2S)-2-(4-(5′-(2-((2S)-1-((2S)-2-((methoxycarbonyl)amino)-3-methylbutanoyl)-2-pyrrolidinyl)-1H-imidazol-4-yl)-2,2′-bithiophen-5-yl)-1H-imidazol-2-yl)-1-pyrrolidinyl)carbonyl)-2-methylpropyl)carbamate], the EC50 amounted to 0.003 nM.
Still for that read-out and setting: next, `COC(=O)N[C@@H](C(=O)N1CCC[C@H]1c1ncc(-c2ncc(-c3cnc(-c4cnc([C@@H]5CCCN5C(=O)[C@H](NC(=O)OC)C(C)C)[nH]4)s3)s2)[nH]1)C(C)C` [Example 11, Methyl ((1R)-1-(((2S)-2-(4-(2′-(2-((2S)-1-((2R)-2-((methoxycarbonyl)amino)-3-methylbutanoyl)-2-pyrrolidinyl)-1H-imidazol-4-yl)-5,5′-bi-1,3-thiazol-2-yl)-1H-imidazol-2-yl)-1-pyrrolidinyl)carbonyl)-2-methylpropyl)carbamate]: 5860 nM; `COCC[C@H](NC(=O)OC)C(=O)N1CCC[C@H]1c1ncc(-c2cnc(-c3ncc(-c4cnc([C@@H]5CCCN5C(=O)[C@H](CCOC)NC(=O)OC)[nH]4)s3)s2)[nH]1` [Example 15, Methyl ((1S)-3-methoxy-1-(((2S)-2-(4-(5′-(2-((2S)-1-(N-(methoxycarbonyl)-O-methyl-L-homoseryl)-2-pyrrolidinyl)-1H-imidazol-4-yl)-2,2′-bi-1,3-thiazol-5-yl)-1H-imidazol-2-yl)-1-pyrrolidinyl)carbonyl)propyl)carbamate]: 2.38 nM.

Staying with this experiment, now noted: Hepatitis C virus; HCV 1b genotype replicon; value given as range class; read-out: 1b EC50 (in μM or range).
As for `COC(=O)N[C@@H](C)C(=O)N1CCC[C@H]1c1ncc(-c2ccc(-c3ccc(-c4cnc([C@@H]5CCCN5C(=O)[C@H](C)NC(=O)OC)[nH]4)s3)s2)[nH]1` [Example 1, Methyl ((1S)-2-((2S)-2-(4-(5′-(2-((2S)-1-(N-(methoxycarbonyl)-L-alanyl)-2-pyrrolidinyl)-1H-imidazol-4-yl)-2,2′-bithiophen-5-yl)-1H-imidazol-2-yl)-1-pyrrolidinyl)-1-methyl-2-oxoethyl)carbamate], the EC50 is < 1 nM.
Same read-out and setting: next, `COCC[C@H](NC(=O)OC)C(=O)N1CCC[C@H]1c1ncc(-c2ccc(-c3ccc(-c4cnc([C@@H]5CCCN5C(=O)[C@H](CCOC)NC(=O)OC)[nH]4)s3)s2)[nH]1` [Example 2, Methyl ((1S)-3-methoxy-1-(((2S)-2-(4-(5′-(2-((2S)-1-(N-(methoxycarbonyl)-O-methyl-L-homoseryl)-2-pyrrolidinyl)-1H-imidazol-4-yl)-2,2′-bithiophen-5-yl)-1H-imidazol-2-yl)-1-pyrrolidinyl)carbonyl)propyl)carbamate]: < 1 nM.
Same read-out and setting: next, `COC(=O)N[C@@H](C(=O)N1CCC[C@H]1c1ncc(-c2ccc(-c3ccc(-c4cnc([C@@H]5CCCN5C(=O)[C@H](NC(=O)OC)C(C)C)[nH]4)s3)s2)[nH]1)C(C)C` [Example 3, Methyl ((1R)-1-(((2S)-2-(4-(5′-(2-((2S)-1-((2R)-2-((methoxycarbonyl)amino)-3-methylbutanoyl)-2-pyrrolidinyl)-1H-imidazol-4-yl)-2,2′-bithiophen-5-yl)-1H-imidazol-2-yl)-1-pyrrolidinyl)carbonyl)-2-methylpropyl)carbamate]: 10 to 10000 nM; `COC(=O)N[C@@H](C(=O)N1CCC[C@H]1c1ncc(-c2ccc(-c3ccc(-c4cnc([C@@H]5CCCN5C(=O)[C@H](NC(=O)OC)c5ccccc5)[nH]4)s3)s2)[nH]1)c1ccccc1` [Example 4, Dimethyl (2,2′-bithiene-5,5′-diylbis(1H-imidazole-4,2-diyl(2S)-2,1-pyrrolidinediyl((1R)-2-oxo-1-phenyl-2,1-ethanediyl)))biscarbamate]: < 1 nM.
The same measure, in the same setting: for `CN(C)[C@@H](C(=O)N1CCC[C@H]1c1ncc(-c2ccc(-c3ccc(-c4cnc([C@@H]5CCCN5C(=O)[C@@H](c5ccccc5)N(C)C)[nH]4)s3)s2)[nH]1)c1ccccc1` [Example 5, (1R′,1′R)-2,2′-(2,2′-Bithiene-5,5′-diylbis(1H-imidazole-4,2-diyl(2S)-2,1-pyrrolidinediyl))bis(N,N-dimethyl-2-oxo-1-phenylethanamine)] the value was < 1 nM; for `COC(=O)N[C@H](C(=O)N1CCC[C@H]1c1ncc(-c2ccc(-c3ccc(-c4cnc([C@@H]5CCCN5C(=O)[C@@H](NC(=O)OC)C5CC5)[nH]4)s3)s2)[nH]1)C1CC1` [Example 7, Dimethyl (2,2′-bithiene-5,5′-diylbis(1H-imidazole-4,2-diyl(2S)-2,1-pyrrolidinediyl((1S)-1-cyclopropyl-2-oxo-2,1-ethanediyl)))biscarbamate], < 1 nM.
For the compound `CN(C)[C@@H](C(=O)N1CCC[C@H]1c1ncc(-c2ncc(-c3cnc(-c4cnc([C@@H]5CCCN5C(=O)[C@@H](c5ccccc5)N(C)C)[nH]4)s3)s2)[nH]1)c1ccccc1` [Example 8, (1R,1′R)-2,2′-(5,5′-Bi-1,3-thiazole-2,2′-diylbis(1H-imidazole-4,2-diyl(2S)-2,1-pyrrolidinediyl))bis(N,N-dimethyl-2-oxo-1-phenylethanamine)], the concentration giving a half-maximal response (EC50) is < 1 nM.
Consider `COC(=O)N[C@@H](C(=O)N1CCC[C@H]1c1ncc(-c2ncc(-c3cnc(-c4cnc([C@@H]5CCCN5C(=O)[C@H](NC(=O)OC)c5ccccc5)[nH]4)s3)s2)[nH]1)c1ccccc1` [Example 9, Dimethyl (5,5′-bi-1,3-thiazole-2,2′-diylbis(1H-imidazole-4,2-diyl(2S)-2,1-pyrrolidinediyl((1R)-2-oxo-1-phenyl-2,1-ethanediyl)))biscarbamate], for which the EC50 is < 1 nM.
Same read-out and setting: next, `COC(=O)N[C@H](C(=O)N1CCC[C@H]1c1ncc(-c2ncc(-c3cnc(-c4cnc([C@@H]5CCCN5C(=O)[C@@H](NC(=O)OC)C(C)C)[nH]4)s3)s2)[nH]1)C(C)C` [Example 10, Methyl ((1S)-1-(((2S)-2-(4-(2′-(2-((2S)-1-((2S)-2-((methoxycarbonyl)amino)-3-methylbutanoyl)-2-pyrrolidinyl)-1H-imidazol-4-yl)-5,5′-bi-1,3-thiazol-2-yl)-1H-imidazol-2-yl)-1-pyrrolidinyl)carbonyl)-2-methylpropyl)carbamate]: 1 to 10 nM.
Same read-out and setting: next, `COC(=O)N[C@H](C(=O)N1CCC[C@H]1c1ncc(-c2ncc(-c3cnc(-c4cnc([C@@H]5CCCN5C(=O)[C@@H](NC(=O)OC)[C@@H](C)OC)[nH]4)s3)s2)[nH]1)[C@@H](C)OC` [Example 12, Methyl ((1S,2R)-2-methoxy-1-(((2S)-2-(4-(2′-(2-((2S)-1-(N-(methoxycarbonyl)-O-methyl-L-threonyl)-2-pyrrolidinyl)-1H-imidazol-4-yl)-5,5′-bi-1,3-thiazol-2-yl)-1H-imidazol-2-yl)-1-pyrrolidinyl)carbonyl)propyl)carbamate]: 10 to 10000 nM.
On the same count and under the same terms, for `COCC[C@H](NC(=O)OC)C(=O)N1CCC[C@H]1c1ncc(-c2ncc(-c3cnc(-c4cnc([C@@H]5CCCN5C(=O)[C@H](CCOC)NC(=O)OC)[nH]4)s3)s2)[nH]1` [Example 13, Methyl ((1S)-3-methoxy-1-(((2S)-2-(4-(2′-(2-((2S)-1-(N-(methoxycarbonyl)-O-methyl-L-homoseryl)-2-pyrrolidinyl)-1H-imidazol-4-yl)-5,5′-bi-1,3-thiazol-2-yl)-1H-imidazol-2-yl)-1-pyrrolidinyl)carbonyl)propyl)carbamate] the value was 10 to 10000 nM.
With `COC(=O)N[C@H](C(=O)N1CCC[C@H]1c1ncc(-c2cnc(-c3ncc(-c4cnc([C@@H]5CCCN5C(=O)[C@@H](NC(=O)OC)C(C)C)[nH]4)s3)s2)[nH]1)C(C)C` [Example 14, Methyl ((1S)-1-(((2S)-2-(4-(5′-(2-((2S)-1-((2S)-2-((methoxycarbonyl)amino)-3-methylbutanoyl)-2-pyrrolidinyl)-1H-imidazol-4-yl)-2,2′-bi-1,3-thiazol-5-yl)-1H-imidazol-2-yl)-1-pyrrolidinyl)carbonyl)-2-methylpropyl)carbamate], the EC50 was < 1 nM.
Same read-out and setting: next, `COC(=O)N[C@@H](C(=O)N1CCC[C@H]1c1ncc(-c2cnc(-c3ncc(-c4cnc([C@@H]5CCCN5C(=O)[C@H](NC(=O)OC)c5ccccc5)[nH]4)s3)s2)[nH]1)c1ccccc1` [Example 16, Dimethyl (2,2′-bi-1,3-thiazole-5,5′-diylbis(1H-imidazole-4,2-diyl(2S)-2,1-pyrrolidinediyl((1R)-2-oxo-1-phenyl-2,1-ethanediyl)))biscarbamate]: < 1 nM; `CN(C)[C@@H](C(=O)N1CCC[C@H]1c1ncc(-c2cnc(-c3ncc(-c4cnc([C@@H]5CCCN5C(=O)[C@@H](c5ccccc5)N(C)C)[nH]4)s3)s2)[nH]1)c1ccccc1` [Example 17, (1R,1′R)-2,2′-(2,2′-Bi-1,3-thiazole-5,5′-diylbis(1H-imidazole-4,2-diyl(2S)-2,1-pyrrolidinediyl))bis(N,N-dimethyl-2-oxo-1-phenylethanamine)]: < 1 nM.
Same read-out and setting: for `COC(=O)N[C@@H](C(=O)N1CCC[C@H]1c1ncc(-c2cnc(-c3ncc(-c4cnc([C@@H]5CCCN5C(=O)[C@H](NC(=O)OC)C(C)C)[nH]4)s3)s2)[nH]1)C(C)C` [Example 18] the value was 10 to 10000 nM.
